# From patent US20070112077A1, “Des-C,D analogs of 1alpha,25-dihydroxy-19-norvitamin D3” (Wisconsin Alumni Research Foundation, priority 2005, published 2007)
# Tests used:
# Sprague-Dawley rats = test: Bone calcium mobilization (serum calcium); format: in vivo, rat; details: even at the very high dose; four consecutive ip doses; FIG. 4
# Description: FIG. 4 is a bar graph comparing the bone calcium mobilization activity of Des-C,D with that of 1,25(OH)2D3.
# Male, weanling Sprague-Dawley rats were placed on Diet 11 (Suda et al. J. Nutr. 100:1049, 1970) (0.47% Ca) diet +vitamins AEK for one week followed by Diet 11 (0.02% Ca) +AEK for 3 weeks. The rats were then switched to a diet containing 0.47% Ca for one week followed by two weeks on a diet containing 0.02% Ca. Dose administration began during the last week on 0.02% calcium diet. Four consecutive ip doses were given approximately 24 hours apart. Twenty-four hours after the last dose, blood was collected from the severed neck and the concentration of serum calcium was determined as a measure of bone calcium mobilization. The first 10 cm of the intestine was also collected for intestinal calcium transport analysis using the everted gut sac method. Antagonism was tested by administering a combination of 1,25(OH)2D3 and the compound to the animal simultaneously.
# [1] = test system: 24-hydroxylase (24Ohase) gene promoter in ROS 17/2.8 (bone) cells; test: In vitro transcription assay (24-hydroxylase gene promoter, luciferase reporter); format: cell-based; details: ROS 17/2.8 cells, FIG. 3
# Description: FIG. 3 is a graph comparing the in vitro transcription activity of Des-C, D with that of 1,25(OH)2D3.
# Transcription activity was measured in ROS 17/2.8 (bone) cells that were stably transfected with a 24-hydroxylase (240hase) gene promoter upstream of a luciferase reporter gene (Arbour et al., 1998). Cells were given a range of doses. Sixteen hours after dosing the cells were harvested and luciferase activities were measured using a luminometer. RLU=relative luciferase units.
# [2] = target: T1, full-length recombinant rat vitamin D receptor (Rattus norvegicus, UniProt P13053); test: Vitamin D receptor binding, competition with [3H]-1,25-(OH)2-D3; details: competition with [3H]-1,25-(OH)2-D3, FIG. 1
# T1 construct: Full-length recombinant rat receptor was expressed in E. coli; histidine tag (C); made in house; host or cells: E. coli BL21 (DE3) Codon Plus RIL
# T1 sequence (P13053 1-423): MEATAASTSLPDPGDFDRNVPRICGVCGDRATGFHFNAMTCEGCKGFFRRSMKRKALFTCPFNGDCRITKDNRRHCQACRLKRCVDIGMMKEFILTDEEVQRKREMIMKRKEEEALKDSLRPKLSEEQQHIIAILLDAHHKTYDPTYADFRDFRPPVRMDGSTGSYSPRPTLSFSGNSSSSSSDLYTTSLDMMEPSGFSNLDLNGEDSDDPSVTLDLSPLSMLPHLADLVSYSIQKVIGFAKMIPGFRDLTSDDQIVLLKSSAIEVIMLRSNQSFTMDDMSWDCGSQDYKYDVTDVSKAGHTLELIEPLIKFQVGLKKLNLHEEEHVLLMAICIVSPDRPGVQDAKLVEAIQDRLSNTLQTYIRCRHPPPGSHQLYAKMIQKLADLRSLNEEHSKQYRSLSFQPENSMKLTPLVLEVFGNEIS
# Description: FIG. 1 is a graph comparing the relative activity of Des-C,D and 1,25(OH)2D3 to compete for binding with [^3H]-1 ,25-(OH)2-D3 to the full-length recombinant rat vitamin D receptor.
# Full-length recombinant rat receptor was expressed in E. coli BL21 (DE3) Codon Plus RIL cells and purified to homogeneity using two different column chromatography systems. The first system was a nickel affinity resin that utilizes the C-terminal histidine tag on this protein. The protein that eluted from this resin was further purified using ion exchange chromatography (S-Sepharose Fast Flow). Aliquots of the purified protein were quick frozen in liquid nitrogen and stored at −80° C. until use. For use in binding assays, the protein was diluted in TEDK50 (50 mM Tris, 1.5 mM EDTA, pH 7.4, 5 mM DTT, 150 mM KCI) with 0.1% Chaps detergent. […]
# Unlabeled ligands were dissolved in ethanol and the concentrations were determined using UV spectrophotometry (1,25(OH)2D3: molar extinction coefficient=18,200 and λmax=265 nm). […]
# Radiolabeled and unlabeled ligands were added to 100 mcl of the diluted protein at a final ethanol concentration of ≦10%, mixed and incubated overnight on ice to reach binding equilibrium. […] Total binding was determined from the tubes containing only radiolabeled ligand.
# [3] = test system: Human promyelocytic leukemia (HL60) cells; test: HL-60 differentiation (nitro blue tetrazolium reduction); format: cell-based; details: FIG. 2
# Description: FIG. 2 is a graph comparing the percent HL-60 cell differentiation as a function of the concentration of Des-C,D with that of 1,25(OH)2D3.
# The study drugs were dissolved in ethanol and the concentrations determined using UV spectrophotometry. Serial dilutions were prepared so that a range of drug concentrations was tested without changing the final concentration of ethanol (≦0.2%) present in the cell cultures.
# Human promyelocytic leukemia (HL60) cells were grown in RPMI-1640 medium containing 10% fetal bovine serum. The cells were incubated at 37° C. in the presence of 5% CO2.
# HL60 cells were plated at 1.2 x 10^5cells/mL. Eighteen hours after plating, cells in duplicate were treated with drug. Four days later, the cells were harvested and a nitro blue tetrazolium reduction assay was performed (Collins et al., 1979; J. Exp. Med. 149:969-974). The percentage of differentiated cells was determined by counting a total of 200 cells and recording the number that contain intracellular black-blue formazan deposits. Verification of differentiation to monocytic cells was determined by measuring phagocytic activity.
compound,measurement,setting,value
"C=C1[C@H](O)CC(=C/C=C/CCC[C@@H](C)CCCC(C)(C)O)C[C@H]1O [Des-C,D]",bone calcium mobilizing activity,Sprague-Dawley rats,no measureable bone calcium mobilizing activity
same,"activity in causing transcription compared with 1,25-(OH)2D3",[1],"does not show as much activity in causing transcription as 1,25-(OH)2D3"
same,"binding to the vitamin D receptor compared with 1,25-(OH)2D3",[2],"does not bind to the vitamin D receptor as strongly as the native hormone 1,25-(OH)2D3"
same,"activity in inducing differentiation of HL-60 cells compared with 1,25-(OH)2D3",[3],"does not show as much activity as 1,25-(OH)2D3"
